Reference: the supplement of paper PMC10307832

Tests used:
Experiment in all cases: relative viability (nuclei count vs DMSO), 5 days (fraction); higher = more cells survive
NCI-H1793 = system: NCI-H1793
Method in brief: (§1)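 Nuclei were stained with Hoechst during a one-step fixation (final 0.05% Triton X-100, 1% formaldehyde, 1 ug/ml Hoechst) carried out 5 days after dosing, then counted on 4× images. The cells, lung cancer lines in 1536-well plates, had been dosed by pin tool the day after seeding with one drug alone or a fixed anchor-drug dose plus five library-drug doses (not always all listed) in √10 steps. Relative viability is the nuclei count in treated wells divided by that in vehicle wells, and each value is the median of duplicate plates.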

HCC-827 = system: HCC-827
Method in brief: as §1

NCI-H2405 = system: NCI-H2405
Method in brief: as §1

NCI-H727 = system: NCI-H727
Method in brief: as §1

NCI-H3122 = system: NCI-H3122
Method in brief: as §1

201T = system: 201T
Method in brief: as §1

NCI-H1944 = system: NCI-H1944
Method in brief: as §1

SK-LU-1 = system: SK-LU-1
Method in brief: as §1

RERF-LC-KJ = system: RERF-LC-KJ
Method in brief: as §1

NCI-H2228 = system: NCI-H2228
Method in brief: as §1

CAL-12T = system: CAL-12T
Method in brief: as §1

CCN(CC)CCCCNc1ncc2cc(-c3cc(OC)cc(OC)c3)c(NC(=O)NC(C)(C)C)nc2n1 + Cc1nc(Nc2ncc(C(=O)Nc3c(C)cccc3Cl)s2)cc(N2CCN(CCO)CC2)n1 [Dasatinib] (partner 0.075 µM)
relative viability (NCI-H1793; first compound 0.01 µM): 0.369
relative viability (NCI-H1793; first compound 0.03162 µM): 0.312
relative viability (NCI-H1793; first compound 0.1 µM): 0.372
relative viability (NCI-H1793; first compound 0.3162 µM): 0.283
relative viability (NCI-H1793; first compound 1 µM): 0.271
relative viability (HCC-827; first compound 0.01 µM): 0.338
relative viability (HCC-827; first compound 0.03162 µM): 0.245
relative viability (HCC-827; first compound 0.1 µM): 0.352
relative viability (HCC-827; first compound 0.3162 µM): 0.335
relative viability (HCC-827; first compound 1 µM): 0.299
relative viability (NCI-H2405; first compound 0.01 µM): 0.193
relative viability (NCI-H2405; first compound 0.03162 µM): 0.202
relative viability (NCI-H2405; first compound 0.1 µM): 0.466
relative viability (NCI-H2405; first compound 0.3162 µM): 0.205
relative viability (NCI-H2405; first compound 1 µM): 0.186
relative viability (NCI-H727; first compound 0.01 µM): 0.177
relative viability (NCI-H727; first compound 0.03162 µM): 0.424
relative viability (NCI-H727; first compound 0.1 µM): 0.385
relative viability (NCI-H727; first compound 0.3162 µM): 0.507
relative viability (NCI-H727; first compound 1 µM): 0.351
relative viability (NCI-H3122; first compound 0.01 µM): 0.876
relative viability (NCI-H3122; first compound 0.03162 µM): 0.914
relative viability (NCI-H3122; first compound 0.1 µM): 0.939
relative viability (NCI-H3122; first compound 0.3162 µM): 0.954
relative viability (NCI-H3122; first compound 1 µM): 0.842
relative viability (201T; first compound 0.01 µM): 0.553
relative viability (201T; first compound 0.03162 µM): 0.568
relative viability (201T; first compound 0.1 µM): 0.677
relative viability (201T; first compound 0.3162 µM): 0.568
relative viability (201T; first compound 1 µM): 0.635
relative viability (NCI-H1944; first compound 0.01 µM): 0.197
relative viability (NCI-H1944; first compound 0.03162 µM): 0.212
relative viability (NCI-H1944; first compound 0.1 µM): 0.22
relative viability (NCI-H1944; first compound 0.3162 µM): 0.236
relative viability (NCI-H1944; first compound 1 µM): 0.196
relative viability (SK-LU-1; first compound 0.01 µM): 0.158
relative viability (SK-LU-1; first compound 0.03162 µM): 0.163
relative viability (SK-LU-1; first compound 0.1 µM): 0.177
relative viability (SK-LU-1; first compound 0.3162 µM): 0.194
relative viability (SK-LU-1; first compound 1 µM): 0.13
relative viability (RERF-LC-KJ; first compound 0.01 µM): 0.783
relative viability (RERF-LC-KJ; first compound 0.03162 µM): 1
relative viability (RERF-LC-KJ; first compound 0.1 µM): 0.843
relative viability (RERF-LC-KJ; first compound 0.3162 µM): 0.947
relative viability (RERF-LC-KJ; first compound 1 µM): 0.738
relative viability (NCI-H2228; first compound 0.01 µM): 0.586
relative viability (NCI-H2228; first compound 0.03162 µM): 0.589
relative viability (NCI-H2228; first compound 0.1 µM): 0.793
relative viability (NCI-H2228; first compound 0.3162 µM): 0.536
relative viability (NCI-H2228; first compound 1 µM): 0.431
relative viability (CAL-12T; first compound 0.01 µM): 0.389
relative viability (CAL-12T; first compound 0.03162 µM): 0.525
relative viability (CAL-12T; first compound 0.1 µM): 0.435
relative viability (CAL-12T; first compound 0.3162 µM): 0.371
relative viability (CAL-12T; first compound 1 µM): 0.417
